SMILES strings stand for the structures. “Also recorded” adds a separate entry of the source. Where two headings read alike, the source gives them in different places.

The conditions of data set [1]: per WO 2007/083242, WO 2006/021743, cited from earlier work.
Data set [2] has as its system corn varieties. Description: Selectivity pot trials, overall phytotoxicity on crops. Type of data set: in vivo. Particulars: corn varieties tested; 3500 ml/ha (equivalent to 350g a.i./ha). The method, then: The selectivity of two Mesotrione 100SC (containing 100 g/l mesotrione) formulations was compared for two crystal modifications (1 and 3).
The test was performed on three corn varieties. The corn varieties were sown in plastic pots (400 cc) filled with heavy soil. Each treatment was sprayed in 5 replicates. The trial was performed in a glasshouse with controlled temperature (20-30°).
Post emergence spraying was performed two weeks after sowing. The trials were sprayed with a mechanical sprayer, with a spray volume of 200 L/ha (equivalent to 3500 ml/ha mesotrione 100SC). The plants were irrigated 24 H (hours) after spraying. Selectivity evaluations were conducted during the trial according to the following scale: • 0=Crop completely dead (necrotic). • 100=Plants without any phytotoxic damage.

`CS(=O)(=O)c1ccc(C(=O)C2C(=O)CCCC2=O)c([N+](=O)[O-])c1` [Mesotrione form 1, 2-[4-(methylsulfonyl)-2-nitrobenzoyl]-1,3-cyclohexanedione]: the “thermodynamic stability of the polymorphic form” value in data set [1] (listed as Form 1) was “thermodynamically stable”.
As to `CS(=O)(=O)c1ccc(C(=O)C2C(=O)CCCC2=O)c([N+](=O)[O-])c1` [Mesotrione form 2, 2-[4-(methylsulfonyl)-2-nitrobenzoyl]-1,3-cyclohexanedione], the “thermodynamic stability of the polymorphic form” value in data set [1] (listed as Form 2) is recorded as “thermodynamically unstable”.
For `CS(=O)(=O)c1ccc(C(=O)C2C(=O)CCCC2=O)c([N+](=O)[O-])c1` [Mesotrione form 3, 2-[4-(methylsulfonyl)-2-nitrobenzoyl]-1,3-cyclohexanedione], the “phytotoxicity on crops as compared to mesotrione form 1” value in data set [2] is given as “decreased phytotoxicity; also recorded: low phytotoxicity”.
